Legend:
[1] = Placental transport in pregnant rats: maternal and fetal serum levels after subcutaneous administration; type: in vivo; conditions: rat, 50 mg/kg subcutaneous
Experimental: In the assay using rats, 19 female rats on day 20 of their gestation period were administered 50 mg./kg. body weight metkephamid (acetate salt) subcutaneously. Sixty minutes after administration, the rats were decapitated, and their blood was collected in glass tubes. The fetuses were removed from the uterus, and the blood was collected either after decapitation or via heart puncture using glass capillary tubes.
(§1) In assaying for metkephamid, 1 ml. serum samples containing 6.72 mg. NaF and 8.0 mg. ethylenediamine tetraacetic acid (EDTA) were prepared and precipitated by addition of 2 ml. acetone. The resulting supernatants were saturated with NaCl and extracted with ethyl acetate. The extracts were dried and derivatized with Fluram® solution. The resulting solution was subjected to reverse phase high performance liquid chromatography and fluorescence detection.
For comparison, meperidine was administered to rats in the manner described for metkephamid. Meperidine content was assayed by adding 6.72 mg. NaF and 8.0 mg. EDTA to 1 ml. samples of serum. The samples were made alkaline with 0.1 ml. of 1.0 M NaOH and extracted with diethyl ether. The extracts were dried and dissolved in 0.3 ml. of ethyl acetate. An aliquot was injected into a gas chromatograph containing a 5 ft. glass column packed with 3% OV-1 on 100/120 mesh Gas Chrom Q. The oven temperature was 165° C., and the flame ionization detector temperature was 250° C.

[2] = Placental transport in pregnant ewes: maternal and fetal serum levels after intramuscular administration; type: in vivo; conditions: sheep
Experimental: In the assay using pregnant ewes, fetal jugular veins and carotid arteries were catheterized and externalized. Maternal femoral arteries were also catheterized. Upon stabilization of the animals, metkephamid (acetate salt) was given intramuscularly, and maternal (10 ml.) and fetal (7 ml.) arterial blood were taken at 0, 10, 20, and 45 minutes. In this assay, 5 ewes at various stages of pregnancy ranging from day 115 to day 145 of a 145-147 day gestation period were used.
as §1

| SMILES | Fetal serum level ([1]; 45 min) [µg/mL] | Maternal serum level ([1]; 45 min) [µg/mL] | Fetal serum level ([1]; 60 min) [µg/mL] | Maternal serum level ([1]; 60 min) [µg/mL] | level at 10 min ([2]; female, maternal serum, im, 5 mg/kg intramuscular, 10 min) [ng/mL] | level at 20 min ([2]; female, maternal serum, im, 5 mg/kg intramuscular, 20 min) [ng/mL] | level at 0.75 h ([2]; female, maternal serum, im, 5 mg/kg intramuscular, 45 min) [ng/mL] | fetal levels ([2]; 5 mg./kg., all measured times, limit of sensitivity about 50 ng./ml.) | Fetal serum level ([2]; 5 mg/kg intramuscular, 0 min) [µg/mL] | Maternal serum level ([2]; 5 mg/kg intramuscular, 0 min) [µg/mL] | Fetal serum level ([2]; 5 mg/kg intramuscular, 10 min) [µg/mL] | Fetal serum level ([2]; 5 mg/kg intramuscular, 20 min) [µg/mL] | Fetal serum level ([2]; 5 mg/kg intramuscular, 45 min) [µg/mL] |
| --- | --- | --- | --- | --- | --- | --- | --- | --- | --- | --- | --- | --- | --- |
| CCOC(=O)C1(c2ccccc2)CCN(C)CC1 [Meperidine, meperidine, reference compound] | 2.02 ± 0.23 | 3.73 ± 0.89 |  |  |  |  |  |  |  |  |  |  |  |
| CC(=O)O.CSCC[C@@H](C(N)=O)N(C)C(=O)[C@H](Cc1ccccc1)NC(=O)CNC(=O)[C@@H](C)NC(=O)[C@@H](N)Cc1ccc(O)cc1 [Metkephamid, L-tyrosyl-D-alanyl-glycyl-L-phenylalanyl-N^α -methyl-L-methionylamide acetate] |  |  | 0.12 ± 0.04 | 7.17 ± 0.28 | 9460 ± 3010 | 9430 ± 2600 | 8540 ± 2600 | undetectable | 0.0 | 0.0 | 0.0 | 0.0 | 0.0 |

Source: patent US4430327A, “Method for treating pregnant females for pain and anxiety” (Eli Lilly and Company, priority 1982, dated 1984)
